Experimental data taken from patent publication US9055743B2, “Alpha, beta-unsaturated imines” (BAYER INTELLECTUAL PROPERTY GMBH, priority 2010, dated 2015).

Tests used:
Assay type in all cases: in vivo
[1] = tested on: Boophilus microplus strain Parkhurst, SP-resistant; experiment: Boophilus microplus test (DIP); details: 100 ppm, after 7 days
Protocol: Boophilus microplus Test (DIP) Test Animals: Adult Fat Females of the Boophilus microplus Strain Parkhurst—SP-Resistant) Solvent: Dimethyl Sulphoxide
10 mg of active compound are dissolved in 0.5 ml of dimethyl sulphoxide. To produce a suitable formulation, the active compound solution is diluted with water to the particular desired concentration.
This active compound preparation is pipetted into tubes. 8-10 ticks are transferred into a further tube provided with holes. The tube is dipped into the active compound preparation, with all the ticks being wetted completely. After the liquid has run off, the ticks are transferred to filter discs in plastic dishes and kept in a climatized room. After 7 days, the activity is checked for deposition of fertile eggs. Eggs whose fertility is not visible from the outside are kept in glass tubes in a climatized cupboard until the larvae have hatched. An activity of 100% means that no tick has laid fertile eggs.

Ctenocephalides felis = Ctenocephalides felis oral test (CTECFE); details: 100 ppm in citrated cattle blood, after two days
How it was run: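 About 20 unfed adult C. felis fed through a parafilm membrane on citrated cattle blood containing compound (DMSO stock diluted to the desired concentration). Kill (%) determined after two days; 100% = all fleas dead, 0% = none dead.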

[2] = tested on: Anopheles gambiae (homocygus kdr); experiment: Anopheles test (ANPHGB surface treatment); details: for knock-down activity: 100 mg/m^2, two hours after contact, exposition 30 minutes; for mortality at 100 mg/m2: Anopheles gambiae, read-out: activity (mortality in %); for Kill rate in % after 24 hours: active compound concentration 1.6 g/ha
How it was run: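 Compound dissolved in acetone at 2 mg/ml, pipetted onto glazed tile and dried; adult kdr-homozygous mosquitoes exposed on the tile for 30 min. Knock-down (%) read 2 h and mortality (%) 24 h after contact.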

Lucilia cuprina larvae = experiment: Lucilia cuprina test (LUCICU); details: 100 ppm, after 2 days
How it was run: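 Horsemeat treated with compound (DMSO concentrate diluted in water) was populated with about 20 L. cuprina larvae. Percent kill was scored after 2 days, from 100% (all larvae dead) to 0% (none dead).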

[3] = tested on: brown dog ticks (Rhipicephalus sanguineus, fully sensitive laboratory strain); experiment: Contact test against ticks in vitro (RHIPSA contact); details: active compound concentration 4 g/ha
Protocol: Contact Test Against Ticks In Vitro (RHIPSA Contact)
An amount of 0.9 mg of active compound is weighed out, and 1 ml of acetone is added.
Of this acetone solution, either 250 μl are transferred directly into roll-necked test tubes or an aliquot is diluted with 4 parts of acetone 1:5. For its part, 250 μl of this dilution are pipetted into roll-necked test tubes, or the dilution is diluted further, etc., until the desired number of dilution steps is reached.
The roll-necked test tubes containing the solution of the active compound in acetone are immediately coated in a fume cupboard by 2 h of swing rotation at 30 rpm. After evaporation of the solvent, the active compound contained in the acetone gives, at the highest concentration tested, an active compound content of 500 g/ha (or […]) on the surface of the test tube.
5-10 Adult brown dog ticks (Rhipicephalus sanguineus, fully sensitive laboratory strain) are transferred into the test tubes prepared in this manner, and the test tubes are closed with a plastic roll-necked lid provided with fine holes.
The test tubes are stored vertically at room temperature and humidity for 24 or 48 h in the dark. After 24 and 48 h, the activity of the active compound applied is determined by comparison with an acetone-treated control. […]

[4] = tested on: bed bugs of the species Cimex lectularius; experiment: whole plant or invertebrate; details: for mortality at 100 mg/m2: Cimex lectularius, read-out: activity (mortality in %)
Protocol: Cimex Test (CIMXLE Surface Treatment)
To produce a suitable preparation of the active compound, the active compound is dissolved in acetone (2 mg/ml). The active compound preparation is pipetted onto a glazed tile and, after drying, adult bed bugs of the species Cimex lectularius are placed onto the treated tile. The exposition time is 30 minutes.
Two hours after contact to the treated surface, the knock-down proportion of the test animals in % is determined
24 hours after contact to the treated surface, the mortality in % is determined. Here, 100% means that all bed bugs have been killed; 0% means that none of the bed bugs have been killed.

| SMILES | activity (100% = no tick has laid fertile eggs) [1] [%] | activity (kill in %) (Ctenocephalides felis) [%] | knock-down activity [2] [%] | activity (kill in %) (Lucilia cuprina larvae) [%] | Kill rate in % after 2 days [3] [%] | mortality at 100 mg/m2 [2] [%] | Kill rate in % after 24 hours [2] [%] | knock-down activity ([4]; 100 mg/m^2, two hours after contact, exposition 30 minutes) [%] | mortality at 100 mg/m2 [4] [%] |
| --- | --- | --- | --- | --- | --- | --- | --- | --- | --- |
| Cc1ccc(N=C2C(=CSc3ccc(C)cc3)CCc3ccccc32)cc1 [Example 1-28] | 100 | 100 | 100 | 100 |  |  |  |  |  |
| Cc1ccc(N=C2C(=CSc3ccc(F)cc3)CSc3ccccc32)cc1 [Example 1-35] |  | 100 | 100 | 100 | 100 | 100 | 100 |  |  |
| Cc1ccc(N=C2C(=CSc3ccc(F)cc3)CCc3ccccc32)cc1 [Example 1-9] |  | 100 | 100 | 100 |  | 100 | 100 | 80 | 100 |
| Cc1ccc(N=C2C(=CSc3ccc(F)cc3)CCc3cc(F)ccc32)cc1 [Example 1-16] | 100 | 100 | 100 | 100 |  | 100 | 80 |  | 90 |
| Cc1ccc(N=C2C(=CSc3ccc(F)cc3)C(C)c3ccccc32)cc1 (centres unmarked) [Example 1-57] |  | 100 | 80 | 100 |  | 100 | 100 |  |  |
